According to paper PMC8640168 (Current Research in Structural Biology, 2021):

Molecular target: SaPgsA (Staphylococcus aureus, UniProt P63756)
Test: […]-G3P incorporation into chloroform-soluble PGP, scintillation counting
Assay type: biochemical
Settings: 1.6 mM [14C]-G3P, 100 mM MgCl2, 20 mM Triton X-100, 100 mM Tris-HCl pH 8.0, 27 C, 50 nM enzyme; detergent micelle (bulk concentration)

- Km: 400 µM
Substance: CDP-DAG
